Laboratory results taken from article doi:10.1101/2025.08.13.670122v1 (bioRxiv, 2025).
Peptide text beside a SMILES is read from it.

Tests used:
AT1R [1] = target: T1, AT1R (Homo sapiens, UniProt P30556); experiment: Gαq activation BRET (GABY sensor) in HEK293 cells expressing AT1R; assay type: cell-based; set-up: expressed in transfected cells; host or cells: HEK293 cells, transient PEI transfection; conditions: for Emax Gαq (% AngII): HEK293/AT1R, GABY BRET sensor, response of the ligand at 10 μM, normalised to AngII; for EC50: HEK293 cells transiently expressing human AT1R, Gαq-RlucII/Gβ1/Gγ1-GFP10 (GABY) BRET sensor, BRET read 10 min after ligand, mean ± SEM of at least three to five independent experiments
T1 sequence (P30556 1-359): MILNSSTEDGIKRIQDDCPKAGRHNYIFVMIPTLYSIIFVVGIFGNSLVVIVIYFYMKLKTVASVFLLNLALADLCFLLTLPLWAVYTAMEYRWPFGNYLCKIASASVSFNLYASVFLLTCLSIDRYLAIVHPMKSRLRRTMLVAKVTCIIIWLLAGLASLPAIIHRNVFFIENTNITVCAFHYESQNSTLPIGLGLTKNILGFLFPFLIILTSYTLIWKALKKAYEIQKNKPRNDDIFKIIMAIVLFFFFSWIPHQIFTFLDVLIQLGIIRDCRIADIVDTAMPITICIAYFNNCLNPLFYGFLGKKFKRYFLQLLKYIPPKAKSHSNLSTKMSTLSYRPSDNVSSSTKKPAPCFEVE
Text: (§1) We utilized a clonal cell line HEK293, referred to hereafter as HEK293 cells, which has been previously described.[7],[8] As a gracious gift from A. Inoue (Tohoku University, Sendai, Miyagi, Japan), CRISPR Gαq/11 and Gα12/13 knockout cell lines (ΔGq/11 and ΔG12/13, respectively), were derived as previously explained.[48] In brief, a CRISPR-Cas9 system was used to target either GNAQ and GNA11 or GNA12 and GNA13 genes in HEK293T cells simultaneously to generate the Gαq/11 and Gα12/13 knockout cell lines. For the production of adenovirus, we utilized HEK293A cells. All cells were grown in DMEM supplemented with 10% FBS and Penicillin-Streptomycin-L-Glutamine (10000 IU penicillin, 10000 µg/mL Streptomycin, 200 mM L-Glutamine) at 37°C in T175 flasks under a 5% CO2 humidified chamber. Periodic testing was carried out for mycoplasma contamination (ABM™, Mycoplasma PCR Detection kit). For all biosensors used, cells underwent transfection with the PEI reagent, employing a PEI:DNA ratio of 3:1. For the Gαq biosensor, HEK293 cells were transfected with the plasmids coding for Gαq-RLucII (120 ng), Gβ1 (3000 ng), Gγ1-GFP10 (3000 ng), human AT1 (3000 ng) and Salmon sperm DNA (SSD) (880 ng). For the β-arrestin2 recruitment assay, HEK293 cells were transfected with the plasmids coding for 120 ng β-arrestin-2-RLucII, 3000 ng AT1, 3000 ng rGFP-CAAX, and 3880 ng SSD. For the measurement of PKC, HEK293 cells were transfected with 3000 ng AT1, 600 ng PKC-c1b, and 6400 ng SSD. […] 100 µL of the cell/DNA mixture was added to white 96-well plates and incubated at 37°C at 5% CO2 for 48 h. For the Rho assay, ΔG12/13 cells were seeded at a density of 9,000 cells per well in poly-ornithine-coated white 96-well plates and transfected the following day. In brief, 1 μg of total DNA in 100 μL of PBS was mixed with 100 μL of PBS containing 3 μL of 1 mg/mL PEI. For Rho signaling, 150 ng of AT1R DNA with 25 ng of PKN-RBD-RlucII [8], and 100 ng of rGFP-CAAX were used. Empty pcDNA was used to reach 1 µg of the total DNA amount in 100 μL of PBS. The DNA was then mixed with 100 μL of PBS containing 3 μL of 1 mg/mL PEI. After a 20-min incubation, the DNA/PEI complexes were dispensed into cells in 96-well plates (15 µL/well), and the experiment was carried out 48 h post-transfection.
(§2) On the day of the experiment, each well was washed with 80 µL of Tyrode’s buffer (140 mM NaCl, 2.7 mM KCl, 1 mM CaCl2, 12 mM NaHCO3, 5.6 mM D-glucose, 0.5 mM MgCl2, 0.37 mM NaH2PO4, 25 mM Hepes (pH 7.4)). This was followed by incubation for 1 h in Tyrode’s buffer at room temperature. For the Gαq, β-arrestin-2, and PKC biosensors used in HEK293 cells, coelenterazine 400A (at a final concentration of 5 μM) was added 10 min before stimulation. Cells were then stimulated with increasing doses of the indicated ligand, and BRET signals were measured using a Tristar2 (Berthold) microplate reader 10 min later. For the PKC and Rho biosensors in VSMCs, and the Rho biosensor in ΔG12/13 cells, cells were similarly stimulated with ligands for 1 min, 1 min 30 s, and 3 min, respectively, before BRET measurement. […] BRET signals were then measured using a Synergy2 (BioTek) microplate reader. The applied filter set was 410/80 nm and 515/30 nm, designed to detect the light emissions of RlucII (Renilla luciferase) (donor) and rGFP (acceptor), respectively.

AT1R [2] = target: T1, AT1R; experiment: β-arrestin2 recruitment BRET (β-arrestin2-RLucII/rGFP-CAAX) in HEK293 cells expressing AT1R; assay type: cell-based; set-up: expressed in transfected cells; host or cells: HEK293 cells, transient PEI transfection; conditions: for Emax βarr2 (% AngII): HEK293/AT1R, β-arrestin2 BRET, response of the ligand at 10 μM, normalised to AngII; for EC50: HEK293 cells transiently expressing AT1R, β-arrestin2-RLucII/rGFP-CAAX BRET, read 10 min after ligand, mean ± SEM of at least three to five independent experiments, SEM, read-out: EC50 βarr2
Text: as §1, §2

Emax Gαq (% AngII) (AT1R [1]) | EC50 (AT1R [1]; SEM) [nM] | Emax βarr2 (% AngII) (AT1R [2]) | EC50 (AT1R [2]) [nM] | EC50 (AT1R [1]) [nM] | SMILES
69 | 3.9 ± 1.9 | 97 | 1 ± 0.3 |  | CC[C@H](C)[C@H](NC(=O)[C@H](Cc1ccc(O)cc1)NC(=O)[C@@H](NC(=O)[C@H](CCCNC(=N)N)NC(=O)[C@@H](N)CC(=O)O)C(C)C)C(=O)N[C@@H](Cc1c[nH]cn1)C(=O)N1CCC[C@H]1C(=O)N[C@@H](Cc1ccc2ccccc2c1)C(=O)O [compound 9]
 |  | 56 | 158 ± 20 | > 10000 | CC[C@H](C)[C@H](NC(=O)[C@H](Cc1ccc(O)cc1)NC(=O)[C@@H](NC(=O)[C@H](CCCNC(=N)N)NC(=O)[C@@H](N)CC(=O)O)C(C)C)C(=O)N[C@@H](Cc1c[nH]cn1)C(=O)N1CCC[C@H]1C(=O)N[C@@H](CCC(N)=O)C(=O)O [compound 7] (H-DRVYIHPQ-OH; N-terminus assumed)
19 | 0.36 ± 0.84 | 81 | 2.3 ± 0.4 |  | CC[C@H](C)[C@H](NC(=O)[C@H](Cc1ccc(O)cc1)NC(=O)[C@@H](NC(=O)[C@H](CCCNC(=N)N)NC(=O)[C@@H](N)CC(=O)O)C(C)C)C(=O)N[C@@H](Cc1c[nH]cn1)C(=O)N1CCC[C@H]1C(=O)N[C@H](C(=O)O)C(C)(C)C [compound 3]
31 | 22 ± 11 | 90 | 3.7 ± 0.7 |  | CC[C@H](C)[C@H](NC(=O)[C@H](Cc1ccc(O)cc1)NC(=O)[C@@H](NC(=O)[C@H](CCCNC(=N)N)NC(=O)[C@@H](N)CC(=O)O)C(C)C)C(=O)N[C@@H](Cc1c[nH]cn1)C(=O)N1CCC[C@H]1C(=O)N[C@@H](Cc1cccnc1)C(=O)O [compound 18]
48 | 17 ± 10 | 100 | 7.4 ± 1.9 |  | C=CCOc1ccc(C[C@H](NC(=O)[C@@H]2CCCN2C(=O)[C@H](Cc2c[nH]cn2)NC(=O)[C@@H](NC(=O)[C@H](Cc2ccc(O)cc2)NC(=O)[C@@H](NC(=O)[C@H](CCCNC(=N)N)NC(=O)[C@@H](N)CC(=O)O)C(C)C)[C@@H](C)CC)C(=O)O)cc1 [compound 10]
 | 4.7 ± 1.1 |  | 2.2 ± 0.4 |  | CC[C@H](C)[C@H](NC(=O)[C@H](Cc1ccc(O)cc1)NC(=O)[C@@H](NC(=O)[C@H](CCCN=C(N)N)NC(=O)[C@@H](N)CC(=O)O)C(C)C)C(=O)N[C@@H](Cc1c[nH]cn1)C(=O)N1CCC[C@H]1C(=O)N[C@@H](Cc1c[nH]c2ccccc12)C(=O)O [compound 21] (H-DRVYIHPW-OH)
49 | 4.6 ± 3 | 93 | 2.8 ± 0.6 |  | CC[C@H](C)[C@H](NC(=O)[C@H](Cc1ccc(O)cc1)NC(=O)[C@@H](NC(=O)[C@H](CCCNC(=N)N)NC(=O)[C@@H](N)CC(=O)O)C(C)C)C(=O)N[C@@H](Cc1c[nH]cn1)C(=O)N1CCC[C@H]1C(=O)N[C@@H](Cc1cccc(O)c1)C(=O)O [24b]
52 | 5.5 ± 3.9 | 95 | 1.4 ± 0.2 |  | CC[C@H](C)[C@H](NC(=O)[C@H](Cc1ccc(O)cc1)NC(=O)[C@@H](NC(=O)[C@H](CCCNC(=N)N)NC(=O)[C@@H](N)CC(=O)O)C(C)C)C(=O)N[C@@H](Cc1c[nH]cn1)C(=O)N1CCC[C@H]1C(=O)N[C@@H](CC1CCCCC1)C(=O)O [compound 4]
 |  | 63 | 957 ± 111 | > 10000 | CC[C@H](C)[C@H](NC(=O)[C@H](Cc1ccc(O)cc1)NC(=O)[C@@H](NC(=O)[C@H](CCCNC(=N)N)NC(=O)[C@@H](N)CC(=O)O)C(C)C)C(=O)N[C@@H](Cc1c[nH]cn1)C(=O)N1CCC[C@H]1C(=O)N[C@@H](CCC(=O)O)C(=O)O [compound 6] (H-DRVYIHPE-OH; N-terminus assumed)
48 | 6.9 ± 2.6 | 101 | 2.2 ± 0.4 |  | CC[C@H](C)[C@H](NC(=O)[C@H](Cc1ccc(O)cc1)NC(=O)[C@@H](NC(=O)[C@H](CCCNC(=N)N)NC(=O)[C@@H](N)CC(=O)O)C(C)C)C(=O)N[C@@H](Cc1c[nH]cn1)C(=O)N1CCC[C@H]1C(=O)N[C@@H](Cc1ccccn1)C(=O)O [compound 19]
91 |  | 107 |  |  | CC[C@H](C)[C@H](NC(=O)[C@H](Cc1ccc(O)cc1)NC(=O)[C@@H](NC(=O)[C@H](CCCNC(=N)N)NC(=O)[C@@H](N)CC(=O)O)C(C)C)C(=O)N[C@@H](Cc1c[nH]cn1)C(=O)N1CCC[C@H]1C(=O)N[C@@H](Cc1c[nH]c2ccccc12)C(=O)O [compound 21] (H-DRVYIHPW-OH; N-terminus assumed)
61 | 8.3 ± 5.1 | 101 | 2.1 ± 0.4 |  | CC[C@H](C)[C@H](NC(=O)[C@H](Cc1ccc(O)cc1)NC(=O)[C@@H](NC(=O)[C@H](CCCNC(=N)N)NC(=O)[C@@H](N)CC(=O)O)C(C)C)C(=O)N[C@@H](Cc1c[nH]cn1)C(=O)N1CCC[C@H]1C(=O)N[C@@H](Cc1cccc2ccccc12)C(=O)O [compound 8]
37 | 7.5 ± 6.3 | 105 | 5.2 ± 1 |  | CC[C@H](C)[C@H](NC(=O)[C@H](Cc1ccc(O)cc1)NC(=O)[C@@H](NC(=O)[C@H](CCCNC(=N)N)NC(=O)[C@@H](N)CC(=O)O)C(C)C)C(=O)N[C@@H](Cc1c[nH]cn1)C(=O)N1CCC[C@H]1C(=O)N[C@@H](Cc1ccncc1)C(=O)O [compound 17]
26 | 2.3 ± 4 | 87 | 3 ± 0.5 | > 10000 | CC[C@H](C)[C@H](NC(=O)[C@H](Cc1ccc(O)cc1)NC(=O)[C@@H](NC(=O)[C@H](CCCNC(=N)N)NC(=O)[C@@H](N)CC(=O)O)C(C)C)C(=O)N[C@@H](Cc1c[nH]cn1)C(=O)N1CCC[C@H]1C(=O)N[C@@H](COCc1ccccc1)C(=O)O [compound 16]
